Assay [1] concerns ARE-luciferase reporter (Nrf2 activation), Hek-293T cells. Put plainly: ARE-luciferase reporter gene assay. The conditions noted are these: Homo sapiens. The class given is cell-based. Here is the method:
The Hek-293T cells were cultured in 96-well plates 24 h before transfection with ARE-luciferase reporter plasmid (11548ES03, Yeasen, China) for 48 h according to the manufacturer's instructions. The Firefly luciferase activities was carried out 12 h after the drug treatment, as described by the manufacturer (11412ES81, Yeasen, China).
(In a reporter assay the amount or activity of a reporter protein is the signal.)

In a further assay the test system is SH-SY5Y cells. The assay can be described thus: Protection against OGD/R damage in SH-SY5Y cells (CCK-8). The class given is cell-based, human. The following applies: for EC50: Homo sapiens. Here is the method:
(§1) To mimic ischemic conditions in vitro, cells were washed with PBS and then cultured for 2.5 h at 37 °C in glucose-free medium under anaerobic conditions (5% hydrogen, 90% nitrogen, and 5% carbon dioxide). OGD process was terminated by transferring cells back to normal glucose-containing medium under normoxic conditions (5% CO₂, 37 °C) and maintained for 24 h.
(§2) In the administration group, cells were exposed for 12 h with Cpd.51 prior to OGD. OGD lasted for 2.5 h and the reperfusion lasted for 24 h before the experiment was concluded. Subsequently, cell viability was determined using the cell counting kit-8 (CCK-8, C0039, Beyotime, China). In the experiment to explore the treatment time window, the only difference was the timing of the Cpd.51 treatment, while all other procedures remained unchanged.
Hek-293T cells were transiently transfected, using Lipofectamine™ 3000 and P3000™ reagent (L3000075, Invitrogen, USA) according to the manufacturer's instructions, with the wild-type, point-mutant and double-mutations constructs of Keap1, DHRS3 or Nrf2 (each at 0.5 ng/μL), respectively. Similarly, to promote the expression of the DHRS3 gene, a DHRS3 expression plasmids (0.5 ng/μL) was transfected as well as the corresponding negative controls into SH-SY5Y cells for 6 h, and further cultured with fresh medium for 18 h according to the manufacturer's instructions.

The subject of assay [2] is rat transient Middle Cerebral Artery Occlusion (tMCAO) model. The assay can be described thus: Rat tMCAO model, acute phase (TTC, mNSS, peri-infarct cortex). The class given is in vivo. Here is the method: Cpd.51 was dissolved in solvent (10% DMSO, 10% Solutol HS-15 and 80% saline). It was injected (i.v.) at dose of 3 mg/kg or 5 mg/kg in a 0.5 mL volume. The Sham group and Vehicle group were treated simultaneously with an equal volume of solvent. In the experiment to explore the treatment time window, we merely administered the drug to the rats at different time points, while all other procedures remained unchanged. In the short-term toxicity study, 10 mg/kg Cpd.51 and Oma were administered via tail vein injection at 0.5 mL daily for 7 consecutive days.
All rats were fasted for more than 12 h before the operation began. Transient focal cerebral ischemia was induced by middle cerebral artery occlusion (MCAO) in rat, as previously described, [29]. In short, after anesthetizing the rats with 2.5% tribromoethanol, the right common carotid artery (CCA), external carotid artery (ECA), and internal carotid artery (ICA) were isolated. […] The body temperature of the animals was maintained between 36.5 °C and 37.5 °C.
After the behavioral assessments, rats were euthanized and the brain harvested. Brain tissue was cut into five coronal sections (2 mm thick) and incubated in 2% TTC (298-96-4, TCI, Japan) for 20 min at 37 °C. The volume of ischemic brain injury was measured using ImageJ (US National Institutes of […], Bethesda, MD, USA).
To assess the degree of neurological impairment, we conducted modified Neurological Severity Score (mNSS) according to previous experience. The investigator was blinded to the grouping situation during the whole experiment.
The anesthetized-animals were transcardially perfused with 0.9% saline in vivo. The ischemic penumbral tissue was isolated from rats and grinded in PBS. Similarly, in vitro, the cells were digested with pancreatic enzymes and placed in PBS. Next, repeatedly freeze and thaw three times in liquid nitrogen and 37 °C water. Sample supernatant was taken for testing according to the MDA or GSH assay kit instructions (S0131M or S0053, Beyotime, China).
Brain tissue was fixed with 4% paraformaldehyde and immersed in 15% sucrose and 30% sucrose at 4 °C overnight. Coronal brain sections (thickness = 20 μm) were incubated with blocking solution for 1.5 h at room temperature followed by incubation with primary antibodies: anti-Nrf2 (1:200, CST), anti-DHRS3 (1:300, Proteintech), anti-NeuN (1:500, Servicebio), anti-GFAP (1:500, Abcam) and anti-Iba-1 (1:500, Abcam). Subsequent immunostaining assays were performed as previously described of cells.

In another assay the test system is primary cortical neurons. The assay can be described thus: OGD/R damage in primary cortical neurons (CCK-8). The class given is cell-based, rat. As for the experimental part:
as §1, §2
Rat primary neuronal cells collected from the cerebral cortices of embryos (embryonic day 18) from pregnant SD rats were isolated and cultured. In brief, the cerebral cortex tissue of […] was removed and cut into small pieces using ophthalmic curved shears. The tissue was repeatedly pipetted after the addition of preheated 0.25% Trypsin digestive solution (BR00083, ABclonal, China). Finally, twice the volume of the culture medium was added and terminated the digestion to complete the extraction of primary cortical cells. […]

[3] abbreviates: 5 mg/kg i.v. at 4 h post-ischemia, read at 24 h.

Like-named read-outs stand apart in the source and are kept apart here.

As for `CC1(C)CCC2(C(=O)NO)CCC3(C)C(C(=O)C=C4C5(C)C=C(C#N)C(=O)C(C)(C)C5CCC43C)C2C1` (centres unmarked) [Cpd.51], the EC50 stood at 56.7 nM in assay [1] (HEK-293T, cells transfected with NC-OE control plasmid); 48.1 nM in assay [1] (Hek-293T cells, 12 h after drug treatment); 183 nM in the assay on SH-SY5Y cells (SH-SY5Y, DHRS3-OE (DHRS3 overexpression plasmid), read-out: EC50 of cytoprotection against OGD/R); 53 nM with SH-SY5Y cells (SH-SY5Y, NC-OE, read-out: EC50 of cytoprotection against OGD/R); 19.7 nM in the assay on SH-SY5Y cells (read-out: EC50 against OGD/R damage). The “OGD/R damage when administered at different time points” value in the assay with SH-SY5Y cells (100 nM, CCK-8) is listed as “consistently alleviated OGD/R damage”. Besides, the “area of infarction (TTC)” value in assay [2] (3 mg/kg and 5 mg/kg i.v. at the same time as ischemia) is reported as “significantly reduced the area of infarction”. Further, the “infarction volume, delayed administration” value in assay [2] (setting [3]) was “significantly diminished infarction volume”. Moreover, in assay [2] (setting [3]), the “mNSS scores, delayed administration” value was “improved mNSS scores”. Besides, the “Nrf2, HO-1 and NQO1 protein levels in peri-infarct cortex” value in assay [2] (24 h post tMCAO, immunoblotting) is reported as “significantly upregulated”. Further, in assay [2] (peri-infarct region, 24 h after ischemia), the “cell type of Nrf2 enrichment (co-staining NeuN, GFAP, Iba-1)” value is recorded as “Nrf2 was selectively enriched in neurons”. For the same compound, the mNSS scores entry in assay [2] (tMCAO rats, i.v.) was “significantly inhibited the increase in mNSS scores”. In assay [2] (tMCAO rats, peri-infarct cortex), the “GSH and MDA in cortical tissues” value is “restoring GSH concentrations and suppressing MDA accumulation”. Further, the “efficacy in OGD/R-induced primary neuronal damage” value in the assay with primary cortical neurons was “excellent efficacy”.

The values above are taken from paper PMC13081163, “Discovery of a novel Nrf2 activator that modulates mitochondrial function in neurons by regulating DHRS3-Nrf2 interaction after ischemic stroke” (Theranostics, 2026).
